Data published in patent US11286228B2, “Stilbene derivative and method for preparing same” (Ozchela Inc., priority 2016, dated 2022).

Target: cyclophilin
Experiment: Cis-trans isomerase inhibitory activity (chymotrypsin-coupled Suc-AAPF-pNA cleavage, absorbance 390 nm)
Assay type: biochemical
Conditions: cyclophilin, chymotrypsin, Suc-AAPF-pNA; read-out: Test Example 1: cis-trans isomerase inhibitory activity (IC50)
Outline: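 Cyclophilin isomerase activity coupled to chymotrypsin cleavage of Suc-AAPF-pNA: chymotrypsin cuts only the trans peptide, so isomerase-driven cis-to-trans conversion increases cleavage within a fixed period. Released product read by absorbance at 390 nm with compound present alongside cyclophilin.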
`CCCCOC(=O)c1c(C=Cc2ccc(CC(C)(C)C)cc2)cccc1CC` [Compound 66] gave an IC50 of 0.02 to 0.2 µM. For `CCCCOC(=O)c1ccccc1C=Cc1ccc(CC(C)(C)C)cc1` [Compound 64], the IC50 was no more than 0.02 µM. Work on `CCCCOC(=O)c1c(C)cccc1C=Cc1ccc(CC(C)(C)C)cc1` [Compound 65] yielded an IC50 of 0.02 to 0.2 µM. With `CC(C)CCc1ccccc1C=C(C#N)c1ccc([N+](=O)[O-])cc1` [Compound 36] the IC50 was 0.02 to 0.2 µM. In the case of `COc1ccccc1CCc1ccccc1C=C(C#N)c1ccc([N+](=O)[O-])cc1` [Compound 49], the IC50 is reported as 0.2 to 2 µM.

Same assay, conditions: read-out: Test Example 1: cis-trans isomerase inhibitory activity (IC50) group
Work on `CC(C)(C)Cc1ccc(C=Cc2c(N)cccc2C(=O)O)cc1` [Compound 151] yielded an IC50 of no more than 0.02 µM.

System: not listed separately
Experiment: Cytotoxicity, MTT test in HCV replicon cells
Assay type: cell-based
Conditions: not given
Experimental: The cytotoxicity of the stilbene derivatives was measured. Replicon cells that stably replicate a hepatitis C virus genome were attached to a 96-well plate and cultured in a CO2 incubator at 37° C. for 24 hr. The replicon cells cultured for one day were washed with a phosphate buffered saline (PBS) solution, treated with the compounds of the present invention, and then cultured for 72 hr. Thereafter, through the MTT [3-(4,5-dimethylthiazol-2-yl)-2,5-diphenyltetrazolium bromide] cytotoxicity test, CC50 values of the compounds of the present invention were measured. The CC50 values of the compounds of the present invention were 200 μM or more.
For `CCCCOC(=O)c1c(C=Cc2ccc(CC(C)(C)C)cc2)cccc1CC` [Compound 66], the CC50 at 72 h was 245 µM. Work on `CCCCOC(=O)c1ccccc1C=Cc1ccc(CC(C)(C)C)cc1` [Compound 64] yielded a CC50 at 72 h of 320 µM. With `CCCCOC(=O)c1c(C)cccc1C=Cc1ccc(CC(C)(C)C)cc1` [Compound 65] the CC50 at 72 h was 284 µM.

System: hepatitis C virus
Experiment: Antiviral activity in HCV replicon cells (Renilla luciferase)
Assay type: cell-based
Conditions: Hepatitis C virus; HCV replicon cells, 72 hr, Renilla luciferase, relative to DMSO; read-out: Test Example 3: antiviral activity (EC50)
Outline: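 Replicon cells stably carrying the HCV genome, pre-cultured 24 h at 37 °C, treated with compound for 72 h, then lysed on ice. Renilla luciferase luminescence used as a measure of HCV genome level, expressed relative to DMSO-treated cells, from which EC50 was derived.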
For `CCCCOC(=O)c1c(C=Cc2ccc(CC(C)(C)C)cc2)cccc1CC` [Compound 66], the EC50 was 0.5 to 5 µM. With `CCCCOC(=O)c1ccccc1C=Cc1ccc(CC(C)(C)C)cc1` [Compound 64] the EC50 was less than 0.5 µM. `CCCCOC(=O)c1c(C)cccc1C=Cc1ccc(CC(C)(C)C)cc1` [Compound 65] gave an EC50 of 0.5 to 5 µM. `CC(C)CCc1ccccc1C=C(C#N)c1ccc([N+](=O)[O-])cc1` [Compound 36] showed an EC50 of 0.5 to 5 µM. With `COc1ccccc1CCc1ccccc1C=C(C#N)c1ccc([N+](=O)[O-])cc1` [Compound 49] the EC50 was 5 to 50 µM.

Same assay, conditions: Hepatitis C virus; HCV replicon cells; read-out: Test Example 3: antiviral activity (EC50) group
Molecule `CC(C)(C)Cc1ccc(C=Cc2c(N)cccc2C(=O)O)cc1` [Compound 151] has an EC50 of less than 0.5 µM.

System: mitochondria obtained from hepatocytes
Experiment: Inhibitory activity on calcium-induced mitochondrial swelling (absorbance 520 nm)
Conditions: Hepatocyte; calcium-induced swelling of extracted mitochondria; read-out: Test Example 4: inhibiting mitochondrial swelling (IC50)
Outline: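 Mitochondria isolated from hepatocytes by Dounce disruption, 700×g clearing and 12,000×g pelleting. Swelling induced with calcium and followed as absorbance at 520 nm; activity expressed as IC50.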
`CCCCOC(=O)c1c(C=Cc2ccc(CC(C)(C)C)cc2)cccc1CC` [Compound 66] showed an IC50 of 5 to 50 µM. Molecule `CCCCOC(=O)c1ccccc1C=Cc1ccc(CC(C)(C)C)cc1` [Compound 64] has an IC50 of less than 5 µM. `CCCCOC(=O)c1c(C)cccc1C=Cc1ccc(CC(C)(C)C)cc1` [Compound 65] showed an IC50 of 5 to 50 µM. In the case of `CC(C)CCc1ccccc1C=C(C#N)c1ccc([N+](=O)[O-])cc1` [Compound 36], the IC50 is reported as 5 to 50 µM. `COc1ccccc1CCc1ccccc1C=C(C#N)c1ccc([N+](=O)[O-])cc1` [Compound 49] gave an IC50 of 50 to 500 µM.

Same assay, conditions: Hepatocyte; read-out: Test Example 4: activity on inhibiting mitochondrial swelling (IC50) group
With `CC(C)(C)Cc1ccc(C=Cc2c(N)cccc2C(=O)O)cc1` [Compound 151] the IC50 was less than 5 µM.
